This note sets out measurements from patent US9284303B2, “Benzimidazole cannabinoid agonists bearing a substituted heterocyclic group” (priority 2006, dated 2016).

Data set [1] deals with T1, human CB1 (hCB1) receptor (Homo sapiens, UniProt P21554).
T1 construct: expressed in transfected cells; host or cells: CHO-K1
Nature of the data set: Inhibition of forskolin-activated cAMP production upon activation of hCB1 (HTRF), CHO-K1 cells. The format is cell-based. Conditions: CB1 pEC50, hCB1-CHO-K1 cells, forskolin-activated cAMP, pEC50=-log(EC50). In a few lines:
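CHO-K1 cells stably expressing hCB1 (20,000/well) were in HBSS stimulation buffer (1 mM IBMX, 10 mM MgCl2, 0.1% BSA, pH 7.4), with 6 μM forskolin in the compound buffer, 30 min at room temperature in the dark. cAMP was read as HTRF 665/620 ratio, normalized to DMSO and CP55490. Outputs were pEC50 and inhibition at 10 μM relative to CP55490.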
In general terms: Cyclic AMP is a second messenger, typically raised through Gs and lowered through Gi signalling.

For data set [2], the target named is T2, human CB2 (hCB2) receptor (Homo sapiens, UniProt P34972).
T2 construct: expressed in transfected cells; host or cells: CHO-K1
Nature of the data set: Inhibition of forskolin-activated cAMP production upon activation of hCB2 (HTRF), CHO-K1 cells. The class given is cell-based. Conditions: for ratio CB2 agonism over CB1 agonism: Table C-1, selectivity hCB2 over hCB1; for ratio CB2 over CB1 agonism: Table C-3, comparison of art compounds A to E with compounds of the invention; for EC50: hCB2-CHO-K1 cells, forskolin-activated cAMP, pEC50=-log(EC50), read-out: CB2 pEC50 (converted).

SMILES strings stand for the structures. Bounds are passed on as bounds.

The melting point is the temperature, or range, at which the solid turns liquid.

T2 sequence (P34972 whole entry): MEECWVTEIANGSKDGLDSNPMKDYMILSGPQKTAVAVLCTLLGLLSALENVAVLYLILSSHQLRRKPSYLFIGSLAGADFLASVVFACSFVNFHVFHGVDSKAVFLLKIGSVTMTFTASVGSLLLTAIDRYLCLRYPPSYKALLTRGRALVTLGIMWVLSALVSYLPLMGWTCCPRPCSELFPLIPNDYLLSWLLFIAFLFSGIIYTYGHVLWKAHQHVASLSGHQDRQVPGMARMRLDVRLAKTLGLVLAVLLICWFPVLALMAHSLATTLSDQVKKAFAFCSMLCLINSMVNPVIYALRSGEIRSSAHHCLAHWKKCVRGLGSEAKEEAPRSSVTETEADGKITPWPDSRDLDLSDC
T1 sequence (P21554 whole entry): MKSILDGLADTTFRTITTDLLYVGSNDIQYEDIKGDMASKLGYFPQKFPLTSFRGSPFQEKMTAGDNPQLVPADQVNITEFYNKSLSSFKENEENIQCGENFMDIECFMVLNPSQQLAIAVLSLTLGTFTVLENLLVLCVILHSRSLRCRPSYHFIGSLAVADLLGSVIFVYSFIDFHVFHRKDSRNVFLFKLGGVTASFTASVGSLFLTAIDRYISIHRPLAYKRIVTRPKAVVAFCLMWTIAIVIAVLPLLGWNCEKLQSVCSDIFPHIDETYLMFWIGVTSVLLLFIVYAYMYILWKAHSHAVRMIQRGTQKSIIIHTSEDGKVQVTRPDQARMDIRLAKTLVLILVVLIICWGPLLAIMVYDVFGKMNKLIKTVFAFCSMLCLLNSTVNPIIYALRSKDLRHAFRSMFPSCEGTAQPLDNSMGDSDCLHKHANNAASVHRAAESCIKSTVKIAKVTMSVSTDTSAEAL

`CC(C)(C)c1nc2cc(S(=O)(=O)c3ccnc(N)c3)ccc2n1CC1CCOCC1` [Co. No. 19] registered a melting point of 235.9 °C. For the same compound, the EC50 in data set [1] is 724 nM. For the same compound, in data set [2], the “ratio CB2 agonism over CB1 agonism” value is 638, the “ratio CB2 over CB1 agonism” value amounted to 638 and the EC50 is 1.12 nM.

Consider `CC(C)(C)c1nc2cc(S(=O)(=O)c3ccc(S(C)(=O)=O)o3)ccc2n1CC1CCOCC1` [Co. No. 20], for which the melting point came out at 165.2 °C. The EC50 in data set [1] was 437 nM. Besides, in data set [2], the “ratio CB2 agonism over CB1 agonism” value came to 347, the “ratio CB2 over CB1 agonism” value amounted to 346 and the EC50 is 1.26 nM.

The compound `CC(=O)Nc1cc(S(=O)(=O)c2ccc3c(c2)nc(C(C)(C)C)n3CC2CCOCC2)ccn1` [Co. No. 22] gave a melting point of 262.3 °C. This compound also showed an EC50 in data set [1] of 2000 nM. Besides, in data set [2], the “ratio CB2 agonism over CB1 agonism” value is reported as 1758, the “ratio CB2 over CB1 agonism” value stood at 1758 and the EC50 was 1.12 nM.

Compound `CC(C)(C)c1nc2cc(S(=O)(=O)c3ccnc(OCC(F)(F)F)c3)ccc2n1CC1CCOCC1` [Co. No. 23] returned a melting point of 166.7 °C. Further, in data set [1], the EC50 is 407 nM. In addition, in data set [2], the “ratio CB2 agonism over CB1 agonism” value was found to be 398, the “ratio CB2 over CB1 agonism” value is recorded as 398 and the EC50 is 1.02 nM.

`Cc1cc(S(=O)(=O)c2ccc3c(c2)nc(CC(C)(C)C)n3CC2CCOCC2)ccn1` [Co. No. 24] registered a melting point of 207.1 °C. The EC50 in data set [1] is 891 nM. Moreover, in data set [2], the “ratio CB2 agonism over CB1 agonism” value stood at 407, the “ratio CB2 over CB1 agonism” value came out at 407 and the EC50 is 2.19 nM.

With `CC(C)(C)c1nc2cc(S(=O)(=O)c3ccc(S(C)(=O)=O)nc3)ccc2n1CC1CCCCC1` [Co. No. 27], the melting point was 200 °C. Further, the EC50 in data set [1] is > 10000 nM. In data set [2], the “ratio CB2 agonism over CB1 agonism” value is recorded as >14125 and the EC50 was 0.708 nM.

As for `Cn1cc(S(=O)(=O)c2ccc3c(c2)nc(C(C)(C)C)n3CC2CCOCC2)ccc1=O` [Co. No. 28], the melting point was 170 °C. In addition, the EC50 in data set [1] was > 10000 nM. In addition, in data set [2], the “ratio CB2 agonism over CB1 agonism” value is >3467, the “ratio CB2 over CB1 agonism” value is given as 3467 and the EC50 was 2.88 nM.

`CC(C)(C)c1nc2cc(S(=O)(=O)c3nccc(C(N)=O)n3)ccc2n1CC1CCOCC1` [Co. No. 29] had a melting point of 220 to 222 °C. This compound also had an EC50 in data set [1] of 1320 nM. In addition, in data set [2], the “ratio CB2 agonism over CB1 agonism” value came out at 417 and the EC50 was 3.16 nM.

As for `COC(=O)c1ccc(S(=O)(=O)c2ccc3c(c2)nc(C(C)(C)C)n3CC2CCOCC2)nc1` [Co. No. 30], the melting point lay within 195 to 197 °C. The EC50 in data set [1] stood at 5250 nM. For the same compound, in data set [2], the “ratio CB2 agonism over CB1 agonism” value came to 3055 and the EC50 is 1.7 nM.

As for `CC(C)(C)c1nc2cc(S(=O)(=O)c3cncc(C#N)c3)ccc2n1CC1CCCCC1` [Co. No. 36], the melting point is 215 to 216 °C. In data set [1], this compound showed an EC50 of 72.4 nM. Also, in data set [2], the “ratio CB2 agonism over CB1 agonism” value is listed as 108 and the EC50 is 0.676 nM.

For `COCCNC(=O)c1ccc(S(=O)(=O)c2ccc3c(c2)nc(C(C)(C)C)n3CC2CCCCC2)nc1` [Co. No. 37], the melting point was 206 to 207 °C. Moreover, the EC50 in data set [1] was > 10000 nM. In addition, in data set [2], the “ratio CB2 agonism over CB1 agonism” value is given as >10839 and the EC50 was 0.933 nM.

With `CC(=O)c1ccc(S(=O)(=O)c2ccc3c(c2)nc(C(C)(C)C)n3CC2CCOCC2)s1` [Co. No. 40], the melting point was found to be 151 °C. This compound also had an EC50 in data set [1] of 209 nM. In data set [2], the “ratio CB2 agonism over CB1 agonism” value amounted to 193 and the EC50 was 1.07 nM.

The compound `CC(C)(C)c1nc2cc(S(=O)(=O)c3cncc(C#N)c3)ccc2n1CC1CCOCC1` [Co. No. 43] yielded a melting point of 240 °C. The same compound showed an EC50 in data set [1] of 1620 nM. Moreover, in data set [2], the “ratio CB2 agonism over CB1 agonism” value came to 1622 and the EC50 was 1 nM.

`CC(C)(C)c1nc2cc(S(=O)(=O)c3cncc(C(N)=O)c3)ccc2n1CC1CCOCC1` [Co. No. 44] gave a melting point of 259 °C. Further, the EC50 in data set [1] is 126 nM. In data set [2], the “ratio CB2 agonism over CB1 agonism” value is on record as 64 and the EC50 was 2 nM.

Compound `CC(C)(C)c1nc2cc(S(=O)(=O)c3ccc(C4(C)OCCO4)cn3)ccc2n1CC1CCOCC1` [Co. No. 45] gave a melting point of 191 °C. The EC50 in data set [1] was > 10000 nM. Also, in data set [2], the “ratio CB2 agonism over CB1 agonism” value is reported as >3311 and the EC50 is 3.02 nM.

As to `CC(C)(C)c1nc2cc(S(=O)(=O)c3ccc(-c4ncon4)s3)ccc2n1CC1CCOCC1` [Co. No. 48], the melting point worked out at 199 °C. The compound also had an EC50 in data set [1] of 200 nM. Besides, in data set [2], the “ratio CB2 agonism over CB1 agonism” value came to 347 and the EC50 is 0.575 nM.

In the case of `COC(C)c1ccc(S(=O)(=O)c2ccc3c(c2)nc(C(C)(C)C)n3CC2CCOCC2)nc1` (stereo not shown) [Co. No. 49], the melting point came to 140 °C. Further, the EC50 in data set [1] was > 10000 nM. For the same compound, in data set [2], the “ratio CB2 agonism over CB1 agonism” value is reported as >2138 and the EC50 is 4.68 nM.

`CC(=O)c1ccc(S(=O)(=O)c2ccc3c(c2)nc(C(C)(C)C)n3CC2CCOCC2)cn1` [Co. No. 50] showed a melting point of 162 °C. The compound further showed an EC50 in data set [1] of 4470 nM. Besides, in data set [2], the “ratio CB2 agonism over CB1 agonism” value turned out to be 6457 and the EC50 was 0.692 nM.

On to `CC(C)(C)c1nc2cc(S(=O)(=O)c3ccc(C#N)nc3)ccc2n1CC1CCOCC1` [Co. No. 51], for which the melting point came out at 228 °C. For the same compound, the EC50 in data set [1] was 89.1 nM. For the same compound, in data set [2], the “ratio CB2 agonism over CB1 agonism” value is 73 and the EC50 was 1.23 nM.

Compound `COc1ccc(S(=O)(=O)c2ccc3c(c2)nc(C(C)(C)C)n3CC2CCOCC2)cn1` [Co. No. 52] came in with a melting point of 198 °C. The EC50 in data set [1] was 229 nM. The “ratio CB2 agonism over CB1 agonism” value in data set [2] (listed as 52) worked out at 331. Also, in data set [2], the EC50 is 0.692 nM.

The compound `CC(C)(C)c1nc2cc(S(=O)(=O)c3ccc(C(C)(C)O)s3)ccc2n1CC1CCOCC1` [Co. No. 53] had a melting point of 258 °C. The same compound had an EC50 in data set [1] of 2240 nM. Moreover, in data set [2], the “ratio CB2 agonism over CB1 agonism” value was 607 and the EC50 was 3.72 nM.

Consider `CC(C)(C)c1nc2cc(S(=O)(=O)c3coc(C4OCCO4)c3)ccc2n1CC1CCOCC1` [Co. No. 55], for which the melting point worked out at 141 °C. The compound further had an EC50 in data set [1] of 832 nM. Moreover, in data set [2], the “ratio CB2 agonism over CB1 agonism” value was 363 and the EC50 was 2.29 nM.

In the case of `CC(C)(C)c1nc2cc(S(=O)(=O)c3ccc(S(C)(=O)=O)nc3)ccc2n1CC1CCOCC1` [Co. No. 56], the melting point is 150 to 160 °C. Also, the EC50 in data set [1] was > 10000 nM. Besides, in data set [2], the “ratio CB2 agonism over CB1 agonism” value was >3802 and the EC50 is 2.63 nM.

As for `CC(C)(C)c1nc2cc(S(=O)(=O)c3ccc(S(C)(=O)=O)s3)ccc2n1CC1CCOCC1` [Co. No. 57], the melting point was 216 °C. For the same compound, the EC50 in data set [1] is 1450 nM. The “ratio CB2 agonism over CB1 agonism” value in data set [2] (listed as 57) worked out at 1328. Also, the EC50 in data set [2] is 1.1 nM.

Compound `CCNS(=O)(=O)c1ccc(S(=O)(=O)c2ccc3c(c2)nc(C(C)(C)C)n3CC2CCOCC2)s1` [Co. No. 59] registered a melting point of 158 °C. Moreover, in data set [1], the EC50 was 2290 nM. Further, in data set [2], the “ratio CB2 agonism over CB1 agonism” value is recorded as 2018 and the EC50 was 1.12 nM.

`CC(C)(C)c1nc2cc(S(=O)(=O)c3ccc(C#N)o3)ccc2n1CC1CCOCC1` [Co. No. 60] displayed a melting point of 145.5 to 145.7 °C. The EC50 in data set [1] is 661 nM. In data set [2], the “ratio CB2 agonism over CB1 agonism” value was found to be 638 and the EC50 was 1.05 nM.

With `CC(C)(C)c1nc2cc(S(=O)(=O)c3sc(S(C)(=O)=O)cc3Br)ccc2n1CC1CCOCC1` [Co. No. 62], the melting point came out at 200 °C. The same compound had an EC50 in data set [1] of 1950 nM. In addition, the “ratio CB2 agonism over CB1 agonism” value in data set [2] (listed as 62) is listed as 3299. The EC50 in data set [2] was 0.589 nM.

In the case of `CC(C)(C)c1nc2cc(S(=O)(=O)c3sc(S(=O)(=O)N4CCOCC4)cc3Br)ccc2n1CC1CCOCC1` [Co. No. 65], the melting point was 230 °C. In addition, the EC50 in data set [1] is > 10000 nM. In data set [2], the “ratio CB2 agonism over CB1 agonism” value is >3388 and the EC50 was 2.95 nM.

Compound `CC(C)(C)c1nc2cc(S(=O)(=O)c3ccc(S(=O)(=O)N4CCOCC4)cn3)ccc2n1CC1CCOCC1` [Co. No. 66] had a melting point of 224 °C. Also, in data set [1], the EC50 is > 10000 nM. Also, in data set [2], the “ratio CB2 agonism over CB1 agonism” value is >676 and the EC50 is 14.8 nM.

`CC(C)(C)c1nc2cc(S(=O)(=O)c3ccc(S(C)(=O)=O)cn3)ccc2n1CC1CCOCC1` [Co. No. 67] registered a melting point of 183 °C. For the same compound, in data set [1], the EC50 was > 10000 nM. Further, in data set [2], the “ratio CB2 agonism over CB1 agonism” value was >2344 and the EC50 was 4.27 nM.

`Cc1oc(S(=O)(=O)c2ccc3c(c2)nc(C(C)(C)C)n3CC2CCOCC2)cc1S(C)(=O)=O` [Co. No. 68] had a melting point of 204 to 205 °C. Moreover, the EC50 in data set [1] was 363 nM. For the same compound, in data set [2], the “ratio CB2 agonism over CB1 agonism” value is on record as 116 and the EC50 is 3.09 nM.
